How the values were obtained:
Mtb H37Rv = format: cell-based, Mycobacterium tuberculosis; conditions: no inhibitor
A549 (lung) = test: Mammalian cytotoxicity A549; format: cell-based; conditions: 1% v/v in 0.5% DMSO
HEK-293 (kidney) = test: Mammalian cytotoxicity HEK-293; format: cell-based; conditions: 1% v/v in 0.5% DMSO
J774A.1 (macrophage) = test: Mammalian cytotoxicity J774A.1; format: cell-based; conditions: 1% v/v in 0.5% DMSO

Compound | H37RV MICKAN (Mtb H37Rv) | cell survival (positive control) (A549 (lung)) | cell survival (positive control) (HEK-293 (kidney)) | cell survival (positive control) (J774A.1 (macrophage))
NC[C@H]1O[C@H](O[C@H]2[C@H](O)[C@@H](O[C@H]3O[C@H](CO)[C@@H](O)[C@H](N)[C@H]3O)[C@H](N)C[C@@H]2N)[C@H](O)[C@@H](O)[C@@H]1O [KAN, kanamycin] | <1.25 µg/mL | – | – | –
Triton-X 100 | – | < 5% | < 5% | < 5%

— article PMC6528465 (ACS infectious diseases, 2018)
